Laboratory results taken from article PMC9034178, “Self-assemblies of pluronic micelles in partitioning of anticancer drugs and effectiveness of this system towards target protein” (RSC Advances, 2021).

molecular target: T1, bovine serum albumin (BSA) (Bos taurus, UniProt P02769); assay: tryptophan fluorescence quenching (ex […] nm), double-log plot; assay type: binding; conditions: no pluronic; pH 7.4, 298.15 K
T1 construct: gene ALB
T1 sequence (P02769 25-607): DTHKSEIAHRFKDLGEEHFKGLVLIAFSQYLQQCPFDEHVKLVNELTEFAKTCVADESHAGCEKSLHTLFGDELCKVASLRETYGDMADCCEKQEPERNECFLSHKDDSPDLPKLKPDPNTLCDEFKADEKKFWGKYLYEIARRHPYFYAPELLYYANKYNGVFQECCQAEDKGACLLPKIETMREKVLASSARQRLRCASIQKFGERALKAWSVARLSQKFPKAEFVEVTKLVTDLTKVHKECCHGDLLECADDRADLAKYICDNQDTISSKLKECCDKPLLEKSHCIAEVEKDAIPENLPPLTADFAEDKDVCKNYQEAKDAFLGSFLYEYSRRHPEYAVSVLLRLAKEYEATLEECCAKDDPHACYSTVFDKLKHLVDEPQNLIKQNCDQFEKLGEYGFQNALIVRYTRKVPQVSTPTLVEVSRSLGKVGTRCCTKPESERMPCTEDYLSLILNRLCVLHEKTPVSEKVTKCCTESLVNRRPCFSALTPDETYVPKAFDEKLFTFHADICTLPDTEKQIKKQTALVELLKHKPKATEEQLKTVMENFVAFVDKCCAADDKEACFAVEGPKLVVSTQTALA

K a (M^-1) | SMILES
(1.1 ± 0.1) × 10^2 M^-1 | Nc1ccn([C@@H]2O[C@H](CO)[C@@H](O)[C@@H]2O)c(=O)n1 [cytarabine]
(2.4 ± 0.2) × 10^2 M^-1 | Nc1ccn([C@@H]2O[C@H](CO)[C@@H](O)C2(F)F)c(=O)n1 [gemcitabine]
(2.3 ± 0.4) × 10^2 M^-1 | NC(=O)NO [hydroxyurea]
